Results taken from patent US12605449B2, “Drug-clay mineral complex containing phospholipid and oral administration composition including same” (Korea Institute of Geoscience and Mineral Resources, priority 2020, dated 2026).
Blank lines part the entries; values can stand above or below the compound they belong to.

Experiments:
Assay type in all cases: physicochemical
[1] = Ciprofloxacin release test using a dialysis membrane (FaSSGF, FaSSIF, FaSSCoF); settings: complex weight ratio 1:5
Text: The release pattern according to the pH of the complex was confirmed through a release test using a dialysis membrane.

[2] = Ciprofloxacin adsorption to bentonite (pH and concentration dependence)
[3] = Carbamazepine drug release test according to pH; settings: regardless of pH
Text: In addition, a pattern released at a constant rate at all pHs was shown, and since the release rate of carbamazepine is higher at high pH, it may be inferred that the drug may be easily released from the lower digestive tract.

[4] = Camptothecin adsorption to bentonite (supernatant concentration); settings: camptothecin 0.25 mg/mL in 1 N HCl
Experimental: The concentration of camptothecin (Tokyo Chemical Industry, TCI) was made at 0.25 mg/mL using a 100% 1 N HCl solvent and the drug and bentonite reacted with each other at various ratios shown in Table 6 below, and then the drug amount adsorbed to bentonite was indirectly measured by measuring the drug concentration of the supernatant.

release pattern in FaSSGF, FaSSIF, FaSSCoF [1]: rapidly released under FaSSGF
amount of drug adsorption per bentonite mass ([2]; bentonite 0.5 mg/mL, ciprofloxacin 50-500 μg/mL, pH 1): ≤ 300 mg/g
adsorption amount of ciprofloxacin according to pH ([2]; ciprofloxacin 0.5 mg/mL, bentonite 5 mg/mL, pH 1 to 10, decreased above pH 7): high adsorption
drug adsorption rate ([2]; weight ratio of ciprofloxacin and bentonite 1:5): ~100%
SMILES: O=C(O)c1cn(C2CC2)c2cc(N3CCNCC3)c(F)cc2c1=O [ciprofloxacin, 1-cyclopropyl-6-fluoro-1,4-dihydro-4-oxo-7-(1-piperazinyl)-quinoline-3-carboxylic acid]

time within which most of the drug was released [3]: ≤ 2 h
SMILES: NC(=O)N1c2ccccc2C=Cc2ccccc21 [Carbamazepine, 5H-dibenzo[b,f]azepine-5-carboxamide]

SMILES: CC[C@@]1(O)C(=O)OCc2c1cc1n(c2=O)Cc2cc3ccccc3nc2-1 [Camptothecin, (S)-4-ethyl-4-hydroxy-1H-pyrano-[3′,4′: 6,7]indolizinol[1,2-b]quinoline-3,14 (4H, 12H)-dione]
Supernatant concentration [4]: 49.7 ± 0.3 µg/mL
